From ChEMBL document CHEMBL1909046, “DrugMatrix in vitro pharmacology data”

Tests used:
[1] = DRUGMATRIX: Sodium/nucleoside co-transporter radioligand binding (ligand: nitrobenzylthioinosine); type: cell membranes, Cavia porcellus, Dunkin-Hartley, Cerebral cortex, Membrane; conditions: Not Active = under 50% inhibition at 10 µM
[2] = DRUGMATRIX: ATPase, Na+/K+ enzyme inhibition (substrate: ATP); type: tissue-based, Sus scrofa, Heart; conditions: Not Active = under 50% inhibition at 10 µM
[3] = DRUGMATRIX: Glutamate, NMDA, Phencyclidine radioligand binding (ligand: [3H] TCP); type: cell membranes, Rattus norvegicus, Wistar, Cerebral cortex, Membrane; conditions: Not Active = under 50% inhibition at 10 µM
[4] = DRUGMATRIX: Leukotriene, BLT (LTB4) radioligand binding (ligand: [3H]LTB4); type: cell membranes, Membrane; conditions: u-937; Not Active = under 50% inhibition at 10 µM
[5] = molecular target: T1, Neuropeptide Y receptor type 2 (Homo sapiens, UniProt P49146); type: cell membranes, Membrane; conditions: kan-ts; further: in other assays of this panel Not Active means under 50% inhibition at 10 µM
T1 sequence (P49146 whole entry): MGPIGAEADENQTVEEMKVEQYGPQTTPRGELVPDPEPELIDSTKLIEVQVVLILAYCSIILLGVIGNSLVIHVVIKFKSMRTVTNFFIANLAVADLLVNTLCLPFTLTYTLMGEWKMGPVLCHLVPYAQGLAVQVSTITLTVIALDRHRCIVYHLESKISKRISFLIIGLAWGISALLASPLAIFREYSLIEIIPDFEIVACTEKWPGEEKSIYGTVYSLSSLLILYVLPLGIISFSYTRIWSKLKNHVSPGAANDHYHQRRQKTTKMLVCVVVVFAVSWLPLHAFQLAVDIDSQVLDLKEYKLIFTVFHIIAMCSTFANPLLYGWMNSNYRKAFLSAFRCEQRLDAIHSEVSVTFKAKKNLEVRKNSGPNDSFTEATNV

Cathepsin G = molecular target: T2, Cathepsin G (Homo sapiens, UniProt P08311); type: tissue-based; conditions: neutrophil;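 further: inhibition of Cathepsin G enzyme activity, tested on an AMC-conjugated peptide substrate; in other assays of this panel Not Active means under 50% inhibition at 10 µM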
T2 sequence (P08311 whole entry): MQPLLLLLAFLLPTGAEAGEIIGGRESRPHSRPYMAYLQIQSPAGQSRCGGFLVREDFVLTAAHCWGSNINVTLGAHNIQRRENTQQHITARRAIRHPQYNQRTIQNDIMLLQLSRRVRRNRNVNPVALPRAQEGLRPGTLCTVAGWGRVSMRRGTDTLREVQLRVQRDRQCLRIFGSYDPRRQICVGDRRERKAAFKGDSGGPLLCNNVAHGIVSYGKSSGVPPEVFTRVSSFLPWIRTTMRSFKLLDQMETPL

Interstitial collagenase = molecular target: T3, Interstitial collagenase (Homo sapiens, UniProt P03956); experiment: biochemical; type: tissue-based, Rheumatoid synovial fibroblasts;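 further: MMP-1 enzyme inhibition assay using a peptide substrate; in other assays of this panel Not Active means under 50% inhibition at 10 µM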
T3 sequence (P03956 whole entry): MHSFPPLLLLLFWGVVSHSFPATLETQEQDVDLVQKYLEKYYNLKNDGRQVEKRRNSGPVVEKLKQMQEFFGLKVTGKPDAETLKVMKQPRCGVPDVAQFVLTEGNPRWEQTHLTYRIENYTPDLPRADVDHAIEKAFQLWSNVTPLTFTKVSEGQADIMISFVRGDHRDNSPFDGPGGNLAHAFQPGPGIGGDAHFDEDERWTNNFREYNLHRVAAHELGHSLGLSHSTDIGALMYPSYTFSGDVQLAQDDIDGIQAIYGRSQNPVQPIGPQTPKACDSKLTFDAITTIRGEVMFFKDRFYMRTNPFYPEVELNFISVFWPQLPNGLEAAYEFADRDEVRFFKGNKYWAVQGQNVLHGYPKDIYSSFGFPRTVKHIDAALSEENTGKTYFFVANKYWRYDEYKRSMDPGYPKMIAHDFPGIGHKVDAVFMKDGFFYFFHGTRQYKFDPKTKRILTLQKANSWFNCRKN

Compound | IC50 [1] | Ki [1] | IC50 [2] | Ki [2] | IC50 [3] | Ki [3] | IC50 [4] | Ki [4] | IC50 [5] | IC50 (Cathepsin G) | IC50 (Interstitial collagenase) | IC50 ([2]; read-out: IC50) [nM] | IC50 (Interstitial collagenase; read-out: IC50) [µM]
O=c1oc2ccccc2c(O)c1Cc1c(O)c2ccccc2oc1=O [DICUMAROL] | Not Active | Not Active | Not Active | Not Active | Not Active | Not Active | Not Active | Not Active | Not Active | Not Active | Not Active | – | –
C[C@H]1O[C@@H](O[C@H]2[C@@H](O)C[C@H](O[C@H]3[C@@H](O)C[C@H](O[C@H]4CC[C@@]5(C)[C@H](CC[C@@H]6[C@@H]5C[C@@H](O)[C@]5(C)[C@@H](C7=CC(=O)OC7)CC[C@]65O)C4)O[C@@H]3C)O[C@@H]2C)C[C@H](O)[C@@H]1O [DIGOXIN] | Not Active | Not Active | – | – | Not Active | Not Active | Not Active | Not Active | Not Active | Not Active | Not Active | 1650 | –
CC(C)[C@@]1(NC(=O)[C@@H]2C[C@@H]3c4cccc5[nH]cc(c45)C[C@H]3N(C)C2)O[C@@]2(O)[C@@H]3CCCN3C(=O)[C@H](Cc3ccccc3)N2C1=O.CS(=O)(=O)O [DIHYDROERGOCRISTINE MESYLATE] | Not Active | Not Active | Not Active | Not Active | Not Active | Not Active | Not Active | Not Active | Not Active | Not Active | Not Active | – | –
CC(=O)O[C@@]12CO[C@@H]1C[C@H](O)[C@@]1(C)C(=O)[C@H](O)C3=C(C)[C@@H](OC(=O)[C@H](O)[C@@H](NC(=O)OC(C)(C)C)c4ccccc4)C[C@@](O)([C@@H](OC(=O)c4ccccc4)[C@H]21)C3(C)C.O.O.O [DOCETAXEL] | Not Active | Not Active | Not Active | Not Active | Not Active | Not Active | Not Active | Not Active | Not Active | Not Active | Not Active | – | –
COc1cc2nc(N3CCN(C(=O)C4COc5ccccc5O4)CC3)nc(N)c2cc1OC (configuration not stated) [DOXAZOSIN] | Not Active | Not Active | Not Active | Not Active | Not Active | Not Active | Not Active | Not Active | Not Active | Not Active | – | – | 5.75
C[C@H]1c2cccc(O)c2C(=O)C2=C(O)[C@]3(O)C(=O)C(C(N)=O)=C(O)[C@@H](N(C)C)[C@@H]3[C@@H](O)[C@@H]21.O [DOXYCYCLINE] | Not Active | Not Active | Not Active | Not Active | Not Active | Not Active | Not Active | Not Active | Not Active | Not Active | Not Active | – | –
O=C(CCCN1CC=C(n2c(=O)[nH]c3ccccc32)CC1)c1ccc(F)cc1 [DROPERIDOL] | Not Active | Not Active | Not Active | Not Active | Not Active | Not Active | Not Active | Not Active | Not Active | Not Active | Not Active | – | –
CC(C)[C@H]1C(=O)N2CCC[C@H]2[C@]2(O)O[C@](NC(=O)[C@@H]3C=C4c5cccc6[nH]cc(c56)C[C@H]4N(C)C3)(C(C)C)C(=O)N12 [ERGOCORNINE] | Not Active | Not Active | Not Active | Not Active | Not Active | Not Active | Not Active | Not Active | Not Active | Not Active | Not Active | – | –
C[C@]12CC[C@@H]3c4ccc(O)cc4CC[C@H]3[C@@H]1CCC2=O [ESTRONE] | Not Active | Not Active | Not Active | Not Active | Not Active | Not Active | Not Active | Not Active | Not Active | Not Active | Not Active | – | –
OC(Cn1cncn1)(Cn1cncn1)c1ccc(F)cc1F [FLUCONAZOLE] | Not Active | Not Active | Not Active | Not Active | Not Active | Not Active | Not Active | Not Active | Not Active | Not Active | Not Active | – | –
CC(C)C(=O)Nc1ccc([N+](=O)[O-])c(C(F)(F)F)c1 [FLUTAMIDE] | Not Active | Not Active | Not Active | Not Active | Not Active | Not Active | Not Active | Not Active | Not Active | Not Active | Not Active | – | –
N=C(N)NCCN1CCCCCCC1 [GUANETHIDINE] | Not Active | Not Active | Not Active | Not Active | Not Active | Not Active | Not Active | Not Active | Not Active | Not Active | Not Active | – | –
CC1(C)O[C@@H]2C[C@H]3[C@@H]4CCC5=CC(=O)CC[C@]5(C)[C@@]4(F)[C@@H](O)C[C@]3(C)[C@]2(C(=O)CCl)O1 [HALCINONIDE] | Not Active | Not Active | Not Active | Not Active | Not Active | Not Active | Not Active | Not Active | Not Active | Not Active | Not Active | – | –
O=c1[nH]c(=O)n([C@H]2C[C@H](O)[C@@H](CO)O2)cc1I [IDOXURIDINE] | Not Active | Not Active | Not Active | Not Active | Not Active | Not Active | Not Active | Not Active | Not Active | Not Active | Not Active | – | –
CC1Cc2ccccc2N1NC(=O)c1ccc(Cl)c(S(N)(=O)=O)c1 (configuration not stated) [INDAPAMIDE] | Not Active | Not Active | Not Active | Not Active | Not Active | Not Active | Not Active | Not Active | Not Active | Not Active | Not Active | – | –
Nc1nc(N)nc(-c2cc(Cl)ccc2Cl)n1.O=C(O)/C=C\C(=O)O [IRSOGLADINE MALEATE] | Not Active | Not Active | Not Active | Not Active | Not Active | Not Active | Not Active | Not Active | Not Active | Not Active | Not Active | – | –
CCC(C)n1ncn(-c2ccc(N3CCN(c4ccc(OCC5COC(Cn6cncn6)(c6ccc(Cl)cc6Cl)O5)cc4)CC3)cc2)c1=O (configuration not stated) [ITRACONAZOLE] | Not Active | Not Active | Not Active | Not Active | Not Active | Not Active | Not Active | Not Active | Not Active | Not Active | Not Active | – | –
CCCCN1CCCC[C@H]1C(=O)Nc1c(C)cccc1C [LEVOBUPIVACAINE] | Not Active | Not Active | Not Active | Not Active | Not Active | Not Active | Not Active | Not Active | Not Active | Not Active | Not Active | – | –
